This series is described as follows: Pharmacokinetic study of oral zinc gluconate, plasma zinc by atomic absorption spectrometry. The class given is in vivo, Labrador Retrievers. Also on record: unit not given here. The procedure:
Two unrelated nine-year old, healthy Labrador Retrievers (1 female and 1 male) were used in a pharmacokinetic study. Food was withheld for a 12-hour period prior to oral administration of zinc, and during the initial 6-hour testing period. Water was freely available. […] Heparinized blood samples (4 ml) were collected from the jugular vein before dosing (time 0) and 15, 30, 45, 60, 90, 120 minutes, and 4, 8, 12 and 24 hours after application of the drug. Plasma was stored at −20° C. until analysis for zinc using atomic absorption spectrometry.
In addition the test was used to detect a difference between group-1 and group-2 before the study, at recheck-1, and at recheck-2 (significance level p<0.05).

Take zinc gluconate: under “Dog 1, oral 10 mg/kg”, the “K01: absorption rate constant” value was determined as 0.5672 and the “K10: elimination rate constant” value was determined as 0.05373. Further, for the setting “Dog 2, oral 5 mg/kg”, the “K01: absorption rate constant” value was 1.161 and the “K10: elimination rate constant” value was found to be 0.03789.

For the origin of these results see US20100278938A1, “GENETIC TEST AND PET DIET” (MARS, INC, priority 2007, published 2010).
